In one test the target is T1, PDGFR-β (Homo sapiens, UniProt P09619).
T1 construct: Kd for PDGFR-β (DKIN); made in house
The test is described as follows: PDGFR-β (DKIN) phage-display competitive binding assay. The source says:
(§1) Methods for measuring binding affinities for interactions between small molecules and kinases including FLT3, c-KIT, ABL(T334I) [a.k.a. ABL(T315I)], VEGFR-2 (a.k.a. KDR), and EGFR are described in detail in U.S. application Ser. No. 10/873,835, which is incorporated by reference herein in its entirety. The components of the assays include human kinases expressed as fusions to T7 bacteriophage particles and immobilized ligands that bind to the ATP site of the kinases. […] If the test compound binds the kinase it competes with the immobilized ligand and prevents binding to the solid support. […] The results are read out by quantitating the amount of fusion protein bound to the solid support, which is accomplished by either traditional phage plaque assays or by quantitative PCR (qPCR) using the phage genome as a template. […] The concentration of test molecule that reduces the number of phage bound to the solid support by 50% is equal to the Kd for the interaction between the kinase and the test molecule. Typically, data are collected for twelve concentrations of test compound and, the resultant binding curve is fit to a non-cooperative binding isotherm to calculate Kd.
(§2) Described in the exemplary assays below is data from binding with varying kinases. […] The term “ND” represents non-determined values.
Kd values for the interactions between PDGFR-β and candidate small molecule ligands were measured by a phage-display-based competitive binding assay that is described in detail in U.S. Ser. No. 10/406,797 filed 2 Apr. 2003 and incorporated herein by reference. Briefly, T7 phage displaying human PDGFR-β were incubated with an affinity matrix coated with known PDGFR-β inhibitor in the presence of various concentrations of the soluble competitor molecules. […] The Kd for the interaction between the soluble competitor molecule and PDGFR-β is equal to the concentration of soluble competitor molecule that causes a 50% reduction in the number of phage recovered in the eluate compared to a control sample lacking soluble competitor. Since this assay is generic, and any molecule can be used as a soluble competitor, we have determined Kd values for the interaction between PDGFR-β and several small molecules, including those shown below.

Test [1] deals with MV4,11 cells. The test is described as follows: FLT-3 cell assay, (MV 4,11) cell proliferation assay with 10% serum "CS0005". It counts as cell-based, human. As for the experimental part:
(§3) The ability of FLT3 kinase inhibitors to inhibit cellular proliferation was also examined. MV4:11 was a cell line derived from a patient with acute myelogenous leukemia. It expressed a mutant FLT3 protein that was constitutively active. […] Inhibition of FLT3 kinase activity prevented proliferation of these cells, and thus the MV4:11 cell line can be used a model for cellular activity of small molecule inhibitors of FLT3.
(§4) FLT3 Assay using MV4,11 Cells
(§5) MV4,11 cells were grown in an incubator @ 37° C. in 5% CO2 in Medium 2 (RPMI, 10% FBS, 4 mM glutamine, Penn/Strep). The cells were counted daily and the cell density was kept between 1e5 and 8e5 cells/ml.
Day One: Enough cells were harvested for experiments to be conducted in 50 ml conical tubes. The harvested cells were spun at 500 g for 5 min at 4° C., the supernatant was then aspirated and the cells were resuspended in the starting volume of 1× PBS. The cells were again spun at 500 g for 5 min at 4° C. and the supernatant again aspirated. The cells were then resuspended in medium 3 (DMEM w/glut, 10% FBS, Penn/Strep) to a density of 4e^5 cells/ml and incubated @ 37° C. in 5% CO2 O/N.
(§6) Day Two: The cells were counted and enough medium 3 was added to decrease density to 2e5 cells/ml. 50 ul (10,000 cells) was aliquoted into each well of a 96 well optical plate using multichannel pipetman. […]

For test [2], the system named is MV4,11 cells. Briefly: (MV 4,11) Cell Proliferation Assay with 0.5% Serum "CS0001". Type of test: cell-based. Conditions: Homo sapiens. The procedure:
as §3, §4, §5
Day One: Enough cells were harvested for experiments to be conducted in 50 ml conical tubes. The harvested cells were spun at 500 g for 5 min at 4° C., the supernatant was then aspirated and the cells were resuspended in the starting volume of 1× PBS. The cells were again spun at 500 g for 5 min at 4° C. and the supernatant again aspirated. […]
as §6

A further test addresses T2, ABL1 (Homo sapiens, UniProt P00519).
T2 construct: made in house
T2 sequence (P00519 242-493 limits assumed): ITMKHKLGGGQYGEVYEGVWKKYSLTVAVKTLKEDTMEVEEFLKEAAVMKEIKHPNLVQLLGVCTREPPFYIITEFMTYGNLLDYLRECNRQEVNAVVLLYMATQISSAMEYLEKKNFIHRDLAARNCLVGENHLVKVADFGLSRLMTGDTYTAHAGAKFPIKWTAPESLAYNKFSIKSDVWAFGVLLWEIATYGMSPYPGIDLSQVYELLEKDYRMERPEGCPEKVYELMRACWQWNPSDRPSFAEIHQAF
Briefly: ABL1 (DKIN) phage-display competitive binding assay.
Text: as §1, §2

The target of another test is T3, FLT3 (Homo sapiens, UniProt P36888).
T3 construct: made in house
T3 sequence (P36888 610-943 limits assumed): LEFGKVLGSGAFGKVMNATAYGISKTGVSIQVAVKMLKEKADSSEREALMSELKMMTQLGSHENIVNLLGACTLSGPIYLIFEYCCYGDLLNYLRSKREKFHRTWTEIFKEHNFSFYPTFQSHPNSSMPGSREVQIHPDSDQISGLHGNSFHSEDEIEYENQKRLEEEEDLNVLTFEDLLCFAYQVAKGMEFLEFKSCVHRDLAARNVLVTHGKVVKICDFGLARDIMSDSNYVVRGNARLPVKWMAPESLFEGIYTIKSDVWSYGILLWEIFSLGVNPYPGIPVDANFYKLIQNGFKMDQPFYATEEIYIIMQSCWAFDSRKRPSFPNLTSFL
The test is described as follows: FLT3 (DKIN) phage-display competitive binding assay.
Text: as §1, §2

In a further test the target is T4, VEGFR-2 (Homo sapiens, UniProt P35968).
T4 construct: made in house
T4 sequence (P35968 20-1356): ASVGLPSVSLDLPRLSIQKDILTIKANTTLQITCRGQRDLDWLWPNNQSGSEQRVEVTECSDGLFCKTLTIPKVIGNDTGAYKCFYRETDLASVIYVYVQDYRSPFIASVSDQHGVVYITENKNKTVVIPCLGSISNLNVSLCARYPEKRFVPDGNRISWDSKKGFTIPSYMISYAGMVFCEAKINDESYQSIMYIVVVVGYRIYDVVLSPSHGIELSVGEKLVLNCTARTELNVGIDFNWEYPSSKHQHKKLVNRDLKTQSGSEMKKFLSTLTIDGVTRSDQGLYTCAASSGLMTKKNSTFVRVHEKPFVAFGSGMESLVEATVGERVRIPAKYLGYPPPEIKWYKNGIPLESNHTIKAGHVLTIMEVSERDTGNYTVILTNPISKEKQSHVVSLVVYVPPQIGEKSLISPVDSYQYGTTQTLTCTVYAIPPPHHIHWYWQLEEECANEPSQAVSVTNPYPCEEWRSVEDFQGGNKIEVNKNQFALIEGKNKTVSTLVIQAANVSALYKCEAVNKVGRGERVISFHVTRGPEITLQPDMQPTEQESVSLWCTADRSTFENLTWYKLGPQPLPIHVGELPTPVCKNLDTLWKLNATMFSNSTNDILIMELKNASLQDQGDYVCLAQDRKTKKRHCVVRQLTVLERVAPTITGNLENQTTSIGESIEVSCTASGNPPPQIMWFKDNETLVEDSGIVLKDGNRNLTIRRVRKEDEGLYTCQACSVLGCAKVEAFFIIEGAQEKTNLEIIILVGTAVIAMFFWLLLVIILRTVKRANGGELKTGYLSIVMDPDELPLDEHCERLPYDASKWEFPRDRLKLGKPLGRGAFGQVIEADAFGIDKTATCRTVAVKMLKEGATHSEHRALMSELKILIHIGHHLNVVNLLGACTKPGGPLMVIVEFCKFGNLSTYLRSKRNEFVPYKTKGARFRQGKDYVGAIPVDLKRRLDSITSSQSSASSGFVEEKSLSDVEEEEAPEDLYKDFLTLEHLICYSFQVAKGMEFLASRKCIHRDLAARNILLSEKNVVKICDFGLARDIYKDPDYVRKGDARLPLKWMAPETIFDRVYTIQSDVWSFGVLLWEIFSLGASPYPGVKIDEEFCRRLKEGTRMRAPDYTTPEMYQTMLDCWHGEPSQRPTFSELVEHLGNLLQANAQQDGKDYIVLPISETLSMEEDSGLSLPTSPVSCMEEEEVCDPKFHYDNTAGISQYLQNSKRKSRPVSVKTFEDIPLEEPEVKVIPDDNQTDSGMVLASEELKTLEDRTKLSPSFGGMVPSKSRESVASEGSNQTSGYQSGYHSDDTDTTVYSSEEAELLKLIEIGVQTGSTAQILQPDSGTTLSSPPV
The test is described as follows: VEGFR-2 phage-display competitive binding assay.
Text: as §1, §2

Broadly, the Kd is the equilibrium constant for the complex coming apart. A low value points to higher affinity. A word on the IC50: it is the concentration needed to halve the response being measured. A low value points to greater potency in that assay.

T1 sequence (P09619 600-962 limits assumed): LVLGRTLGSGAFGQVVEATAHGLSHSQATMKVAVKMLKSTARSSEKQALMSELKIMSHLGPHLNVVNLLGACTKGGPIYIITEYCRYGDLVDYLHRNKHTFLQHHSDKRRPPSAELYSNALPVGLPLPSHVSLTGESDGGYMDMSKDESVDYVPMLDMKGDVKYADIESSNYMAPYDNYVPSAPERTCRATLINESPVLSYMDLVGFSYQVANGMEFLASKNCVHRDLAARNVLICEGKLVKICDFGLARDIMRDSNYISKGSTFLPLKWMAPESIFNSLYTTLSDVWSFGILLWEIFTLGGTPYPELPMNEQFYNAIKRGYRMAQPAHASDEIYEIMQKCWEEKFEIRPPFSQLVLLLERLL

The compound `COc1ccc(-c2cc3c(Nc4cccc(O)c4)ncnc3[nH]2)cc1` [Compound S6] yielded a Kd on PDGFR-β above 10000 nM.
Take `COc1ccc(-c2cc3c(Nc4cccc(C)c4)ncnc3[nH]2)cc1` [Compound S10]: the dissociation constant Kd at PDGFR-β was in the range of 100 to 1000 nM. The “activity in the FLT-3 cell assay, (MV 4,11) cell proliferation assay with 10% serum, "CS0005"” value in the test with MV4,11 cells [1] is recorded as “++ (a Kd of 1,000 nM to 10,000 nM)”. Besides, the IC50 in the test on MV4,11 cells [2] was below 100 nM.
`CCc1ccccc1Nc1ncnc2c1cc(-c1ccc(O)cc1)n2C` [Compound Q4]: the equilibrium dissociation constant (Kd) on PDGFR-β lay in the range of 100 to 1000 nM.
Compound `COC(=O)c1cccc(Nc2ncnc3[nH]c(-c4cccc(OC)c4)cc23)c1` [Compound S15] returned an equilibrium dissociation constant (Kd) on PDGFR-β of 1000 to 10000 nM.
As to `C[C@H](Nc1ncnc2[nH]c(-c3ccc(O)cc3)cc12)c1ccccc1` [Compound I9], the Kd on ABL1 was 1000 to 10000 nM.
As to `COc1cccc(-c2cc3c(Nc4cccc(O)c4)ncnc3[nH]2)c1` [Compound S16], the Kd on PDGFR-β lay within 1000 to 10000 nM; on ABL1, 100 to 1000 nM; at FLT3, 100 to 1000 nM.
`COc1ccc(-c2cc3c(N[C@H](C)c4ccccc4)nc(N[C@@H](C)c4ccccc4)nc3[nH]2)cc1` [Compound M22] displayed a dissociation constant Kd on PDGFR-β of 100 to 1000 nM.
For the compound `COc1ccc(-c2cc3c(N[C@@H](C)c4ccccc4)ncnc3n2C(C)C)cc1` [Compound D10], the Kd on ABL1 is 1000 to 10000 nM.
`COc1cccc(-c2cc3c(N[C@H](C)c4ccccc4)ncnc3[nH]2)c1` [Compound I10]: at PDGFR-β, the Kd lay within 100 to 1000 nM.
As for `C[C@@H](Nc1ncnc2c1cc(-c1ccc(O)cc1)n2C)c1ccccc1` [Compound Q2], the dissociation constant Kd on PDGFR-β fell in the range of 100 to 1000 nM.
The same measure, in the same setting: next, `COC(=O)C(Nc1ncnc2[nH]c(-c3ccc(OC)cc3)cc12)c1ccccc1` (stereo not shown) [Compound I7]: 100 to 1000 nM; `COc1ccc(-c2cc3c(Nc4ccc(F)c(Cl)c4)ncnc3[nH]2)cc1` [Compound S7]: above 10000 nM.
On the same count and under the same terms, next, `COc1ccc(-c2cc3c(Nc4ccc(F)cc4)ncnc3[nH]2)cc1` [Compound S9]: 100 to 1000 nM.
In the test on MV4,11 cells [2], `Cc1cc(C)cc(Nc2ncnc3[nH]c(-c4ccc(Br)cc4)cc23)c1` [Compound S39] gave a 50% inhibitory concentration (IC50) of 100 to 1000 nM. This compound also had a Kd at FLT3 above 10000 nM.
For `COc1ccc(-c2cc3c(NCCc4ccccc4)ncnc3[nH]2)cc1` [Compound I8], the Kd on PDGFR-β is 1000 to 10000 nM; at ABL1, 100 to 1000 nM.
`CC(Nc1ncnc2oc(-c3ccccc3)c(-c3ccccc3)c12)c1ccccc1` (stereo not shown) [Compound H3] yielded a Kd on VEGFR-2 above 10000 nM.
On PDGFR-β, `COc1ccc(-c2cc3c(NCc4cccc(C)c4)ncnc3[nH]2)cc1` [Compound I4] had a Kd of 100 to 1000 nM.
The same measure, in the same setting: next, `Cn1c(-c2ccc(O)cc2)cc2c(Nc3ccccc3Cl)ncnc21` [Compound Q3]: 100 to 1000 nM.
On FLT3, `COc1cccc(-c2cc3c(NCc4cccc(C)c4)ncnc3[nH]2)c1` [Compound I12] gave a Kd above 10000 nM.

The values above are taken from patent US20050187389A1, “Pyrrolopyrimidine derivatives and analogs and their use in the treatment and prevention of diseases” (Ambit Biosciences Corporation, priority 2004, published 2005).
